Results: patent publication US20130101624A1, “LINEAR IGE PEPTIDE EPITOPES OF HAZELNUT ALLERGEN COR A 1 AND CELERY ANTIGEN API 1” (CHARITE UNIVERSITATSMEDIZIN BERLIN, priority 2010, published 2013)

Columns and labels:
[1] = test system: human IgE antibodies (sera of hazelnut allergic patients); assay: Human IgE antibody binding to Cor a 1.0301 derived 12-meric peptide array (SPOT pepscan), probed with sera; conditions: sera of 13 hazelnut allergic patients
From the text: An array of overlapping peptides representing the entire sequence of major hazelnut allergen Cor a 1.0301 was synthesized and probed with the participants' sera. Sera of hazelnut allergic patients show binding to different distinct regions of Cor a 1. In particular, the region of dodecapeptides 17 to 22 is the most important region for IgE-binding.
(§1) Subsequently, these sequences were synthesized as peptide arrays on cellulose membranes according to SPOT technology. A highly specific secondary anti-human IgE antibody with minimum cross-reactivity towards cellulose membrane-bound peptides was employed.
Synthetic arrays were probed with sera randomly chosen from a well described cohort of subjects, including 21 patients with a defined allergic reaction to celery, 13 patients with a defined allergic reaction to hazelnut and 17 healthy individuals. Captured human IgE antibodies were detected by a HRP-labeled secondary antibody and binding was visualized by chemiluminescence. […]
Human IgE antibody binding studies: The spotted peptide arrays were prewashed with ethanol (1×10 min), washed with Tris-buffered saline (TBS), pH 8.0 (3×10 min), and blocked for 2 h at room temperature with blocking buffer. […] The signal intensities were recorded as Biomedical Light Units (BLU) by a Lumilmager™ (Boehringer Mannheim GmbH, Mannheim, Germany) using the LumiAnalyst software. […]

[2] = test system: human IgE antibodies (sera of celery allergic patients and healthy subjects); assay: Human IgE antibody binding to Api g 1.0101 derived 12-meric peptides arrayed on cellulose membrane (SPOT pepscan), probed with sera; conditions: for share of celery allergic individuals whose serum IgE responded to the peptide / recognition by sera of celery allergic patients: sera of 21 celery allergic patients; for share of celery allergic individuals whose serum IgE responded to the peptide / IgE binding in sera of healthy controls / recognition by sera of celery allergic patients: diluted 1:5; for share of celery allergic individuals whose serum IgE responded to the peptide: spot positive if SInorm above membrane cut off; for number of celery allergic patients whose sera IgE antibodies bind the sequence: of 21 celery allergic patients; for IgE binding in sera of healthy controls: sera of 17 healthy subjects
From the text: as §1
Synthetic arrays were probed with sera randomly chosen from a well described cohort of subjects, including 21 patients with a defined allergic reaction to celery, 13 patients with a defined allergic reaction to hazelnut and 17 healthy individuals. Captured human IgE antibodies were detected by a HRP-labeled secondary antibody and binding was visualized by chemiluminescence.
The optimal conditions for screening the sera of 21 celery allergic patients and 17 healthy controls were as follows: (i) replica of a 12-meric pepscan with a shift of three amino acids covering the Api g 1.0101 sequence (or cor a 1 sequence, respectively) synthesized on high-loaded N-CAPE membranes (640 nmol/cm2-760 nmol/cm2); (ii) prior to treatment with sera, membranes were blocked with the Sigma-Genosys blocking buffer for 2 h at room temperature; (iii) arrays were probed for 16 h at 4° C. with diluted sera (1:5) for IgE antibody binding; (iv) the captured human IgE antibodies were detected with the HRP-labeled anti-human IgE antibody (A 9667, Sigma-Aldrich) and visualized by chemiluminescence; (v) spot signal intensities were measured on a Lumilmager and processed with the LumiAnalyst software. To check the reproducibility of our screening procedure, three different peptide arrays were incubated and evaluated for each person (allergic and healthy).
Sera binding patterns could be reproduced in repeated incubation experiments. Although inter-membrane absolute spot signal intensities differed, the relative differences between spot signal intensities were nearly the same. This enabled comparison of spot signal intensities from different membranes by applying an additional normalization procedure. We defined an IgE antibody binding spot as positive if its normalized signal intensity (SInorm) was higher than the calculated cut off value of the appropriate membrane.
Peptide array synthesis: Overlapping peptide sequences (7-, 12- and 24-mer) with a shift of three amino acids) of Api g 1.0101 or cor a 1 were prepared by a MultiPep SPOT-robot (INTAVIS Bioanalytical Instruments AG, Köln, Germany). Array design was performed with the aid of the in-house software LISA 1.83. Amino acids were used as Fmoc-protected Opfp-esters with the following side protection groups: tert-butyl ester (OtBu) for E and D, tert-butyl ether (tBu) for S, T and Y, tert-butoxycarbonyl (Boc) for K and W, triphenylmethyl (Trt) for C, N, Q and H and 2,2,4,6,7-pentamethyldihydrobenzofuran-5-sulfonyl (Pbf) for R. For standard SPOT-synthesis, double couplings of 0.3 M solutions of amino acids in 1-methyl-2-pyrollidone (NMP; Fluka, Steinheim, Germany) were applied. After the final Fmoc-deprotection step and washing procedure, cleavage of the side chain protecting groups was performed according to our standard two-step deprotection protocol.
Human IgE antibody binding studies: The spotted peptide arrays were prewashed with ethanol (1×10 min), washed with Tris-buffered saline (TBS), pH 8.0 (3×10 min), and blocked for 2 h at room temperature with blocking buffer. The membranes were incubated with the patients' sera (dilution 1:5) in blocking buffer overnight at 4° C., washed with TBS, followed by a second incubation with anti-human IgE antibody (ε-chain specific) conjugated with horse radish peroxidase (HRP) (A 9667, Sigma-Aldrich, St. Louis, USA) in blocking buffer for 2 h at room temperature. To remove excess antibody the membrane was washed with TBS (3×10 min). Detection was performed with Uptilight HRP blot chemiluminescent substrate (Uptima, Interchim, Montiugon Cedex, France) with an exposure time of 2 min. […]

## AGKEKASGLFKA (listed as Corylus avellana) [COR A 1. PEP47]
[1]
  recognition by sera of hazelnut allergic patients: recognized by all sera of hazelnut allergic patients

## GDGGPGTLKIIT (listed as Apium graveolens) [compound 16]
[2]
  share of celery allergic individuals whose serum IgE responded to the peptide: 38%

## GGPITTMTLRID (listed as Apium graveolens) [compound 21]
[2]
  share of celery allergic individuals whose serum IgE responded to the peptide: 29%

## IFQGFVIDVDTV (listed as Apium graveolens) [peptide 7]
[2]
  number of celery allergic patients whose sera IgE antibodies bind the sequence: at least six
  IgE binding in sera of healthy controls: not reacting with any sera IgE antibody from healthy subjects
  share of celery allergic individuals whose serum IgE responded to the peptide: 38%

## IITLPDGGPITT (listed as Apium graveolens) [compound 19]
[2]
  share of celery allergic individuals whose serum IgE responded to the peptide: 29%

## NHVVLVPTADGG [peptide 34]
[2]
  number of celery allergic patients whose sera IgE antibodies bind the sequence: at least six
  IgE binding in sera of healthy controls: not reacting with any sera IgE antibody from healthy subjects
  share of celery allergic individuals whose serum IgE responded to the peptide: 29%

## PHGGSILKSISK (listed as Corylus avellana) [COR A 1. PEP37]
[1]
  recognition by sera of hazelnut allergic patients: recognized by all sera of hazelnut allergic patients

## PTADGGSICKTT (listed as Apium graveolens) [compound 36]
[2]
  share of celery allergic individuals whose serum IgE responded to the peptide: 43%

## VLVPTADGGSIC (listed as Apium graveolens) [peptide 35]
[2]; average spot signal intensity, chemiluminescence, FIG. 3
  spot signal intensity (BLU), ranking: highest measured spot signal intensity
[2]
  number of celery allergic patients whose sera IgE antibodies bind the sequence: at least six
  IgE binding in sera of healthy controls: not reacting with any sera IgE antibody from healthy subjects
  recognition by sera of celery allergic patients: recognized by the sera from all the celery allergic patients
  share of celery allergic individuals whose serum IgE responded to the peptide: 100%
[2]; listed as VLVPTADGGSIC
  IgE binding in sera of healthy controls: no binding
  recognition by sera of celery allergic patients: recognized by all sera of celery allergic patients
